Assay results: PubChem BioAssay (NCI)
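All cell lines were grown in 96-well plates and treated with compound for 48 hours. Here, GI50 denotes the concentration required for 50% inhibition of growth. TGI denotes the concentration required for complete inhibition of growth.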

Tests used:
Test in all cases: growth of human tumour cells (NCI), 48 h
[1] = test system: SK-MEL-2 melanoma
[2] = test system: SNB-19 CNS
[3] = test system: MCF7 breast
[4] = test system: NCI/ADR-RES ovarian
[5] = test system: HCC-2998 colon
[6] = test system: HOP-62 NSCLC
[7] = test system: HCT-116 colon
[8] = test system: UACC-257 melanoma
[9] = test system: HT29 colon
[10] = test system: RXF 393 renal
[11] = test system: CCRF-CEM leukemia
[12] = test system: TK-10 renal
[13] = test system: PC-3 prostate
[14] = test system: NCI-H460 lung
[15] = test system: OVCAR-5 ovarian
[16] = test system: HL-60(TB) leukemia
[17] = test system: SF-539 CNS
[18] = test system: KM12 colon
[19] = test system: U251 CNS
[20] = test system: T-47D breast
[21] = test system: 786-0 renal
[22] = test system: OVCAR-3 ovarian
[23] = test system: SR leukemia
[24] = test system: LOX IMVI melanoma
[25] = test system: UO-31 renal
[26] = test system: HCT-15 colon
[27] = test system: OVCAR-8 ovarian
[28] = test system: SK-MEL-28 melanoma
[29] = test system: RPMI-8226 leukemia
[30] = test system: CAKI-1 renal
[31] = test system: OVCAR-4 ovarian
[32] = test system: NCI-H23 lung
[33] = test system: UACC-62 melanoma
[34] = test system: SK-OV-3 ovarian
[35] = test system: ACHN renal
[36] = test system: K-562 leukemia
[37] = test system: NCI-H226 lung
[38] = test system: DU-145 prostate
[39] = test system: SW-620 colon
[40] = test system: SF-268 CNS
[41] = test system: SNB-75 CNS
[42] = test system: HS 578T breast
[43] = test system: SF-295 CNS
[44] = test system: BT-549 breast
[45] = test system: A498 renal
[46] = test system: MDA-MB-231 breast
[47] = test system: EKVX NSCLC
[48] = test system: COLO 205 colon
[49] = test system: SK-MEL-5 melanoma
[50] = test system: SN12C renal
[51] = test system: A549 NSCLC
[52] = test system: MALME-3M melanoma
[53] = test system: MOLT-4 leukemia
[54] = test system: MDA-MB-435

COc1ccc(NC(=O)/C=C(C)/C=C/C=C(C)/C=C/C2=C(C)CCCC2(C)C)cc1 gave a GI50 [1] of 13.3 µM, a TGI [1] of 26.2 µM and a GI50 [2] of 14.7 µM. It also gave a TGI [2] of 28.1 µM, a GI50 [3] of 3.28 µM and a TGI [3] of 12.4 µM. The GI50 [4] was 13.9 µM, the TGI [4] was 31.1 µM and the GI50 [5] was 17.7 µM. The TGI [5] was 33.5 µM, the GI50 [6] was 18.2 µM and the TGI [6] was 34.1 µM. It also gave a GI50 [7] of 2.43 µM, a TGI [7] of 6.99 µM and a GI50 [8] of 12.3 µM. The TGI [8] was 26.7 µM, the GI50 [9] was 3.22 µM and the TGI [9] was 10.2 µM. The GI50 [10] was 12.8 µM, the TGI [10] was 26.2 µM and the GI50 [11] was 2.05 µM. For the same compound, the TGI [11] was 4.67 µM, the GI50 [12] was 37.5 µM and the TGI [12] was 58.2 µM. The GI50 [13] was 3.18 µM, the TGI [13] was 11.8 µM and the GI50 [14] was 12.8 µM. The TGI [14] was 26.9 µM, the GI50 [15] was 15.9 µM and the TGI [15] was 30.7 µM. For the same compound, the GI50 [16] was 2.85 µM, the TGI [16] was 6.01 µM and the GI50 [17] was 2.59 µM. For the same compound, the TGI [17] was 6.15 µM, the GI50 [18] was 4.4 µM and the TGI [18] was 14.5 µM. For the same compound, the GI50 [19] was 4.76 µM, the TGI [19] was 17.9 µM and the GI50 [20] was 3.75 µM. It also gave a TGI [20] of 16.1 µM, a GI50 [21] of 14.4 µM and a TGI [21] of 28.7 µM. It also gave a GI50 [22] of 2.64 µM, a TGI [22] of 5.9 µM and a GI50 [23] of 1.98 µM. For the same compound, the TGI [23] was 11.9 µM, the GI50 [24] was 2.93 µM and the TGI [24] was 10.6 µM. The GI50 [25] was 10.8 µM, the TGI [25] was 25.4 µM and the GI50 [26] was 4.51 µM. It also gave a TGI [26] of 18.1 µM, a GI50 [27] of 13 µM and a TGI [27] of 38.5 µM. For the same compound, the GI50 [28] was 4.13 µM, the TGI [28] was 14.1 µM and the GI50 [29] was 2.33 µM. It also gave a TGI [29] of 7.76 µM, a GI50 [30] of 3.28 µM and a TGI [30] of 14.4 µM. It also gave a GI50 [31] of 5.85 µM, a TGI [31] of 19 µM and a GI50 [32] of 9.78 µM. For the same compound, the TGI [32] was 24.3 µM, the GI50 [33] was 10.7 µM and the TGI [33] was 22.9 µM. It also gave a GI50 [34] of 17 µM, a TGI [34] of 30.7 µM and a GI50 [35] of 3.21 µM. The TGI [35] was 12.4 µM, the GI50 [36] was 2.41 µM and the TGI [36] was 7.23 µM. For the same compound, the GI50 [37] was 2.83 µM, the TGI [37] was 6.7 µM and the GI50 [38] was 8.2 µM. The TGI [38] was 20.3 µM, the GI50 [39] was 2.98 µM and the TGI [39] was 8.43 µM. For the same compound, the GI50 [40] was 4.95 µM, the TGI [40] was 17.3 µM and the GI50 [41] was 4.5 µM. It also gave a TGI [41] of 18.5 µM, a GI50 [42] of 9.42 µM and a TGI [42] of 39.8 µM. It also gave a GI50 [43] of 13.3 µM, a TGI [43] of 27.2 µM and a GI50 [44] of 27.2 µM. The TGI [44] was 43.3 µM, the GI50 [45] was 19.9 µM and the TGI [45] was 34.5 µM. The GI50 [46] was 4.25 µM, the TGI [46] was 15.1 µM and the GI50 [47] was 14.9 µM. For the same compound, the TGI [47] was 29.2 µM, the GI50 [48] was 3.52 µM and the TGI [48] was 10.9 µM. For the same compound, the GI50 [49] was 9.06 µM, the TGI [49] was 21.1 µM and the GI50 [50] was 11.2 µM. For the same compound, the TGI [50] was 23.9 µM, the GI50 [51] was 14.9 µM and the TGI [51] was 30.7 µM. It also gave a GI50 [52] of 38.9 µM, a TGI [52] of 65.4 µM and a GI50 [53] of 2.34 µM. The TGI [53] was 5.96 µM, the GI50 [54] was 5.47 µM and the TGI [54] was 19.1 µM.
